# Assay: Capacity of the test compounds for keeping iron soluble in the presence of calcium
# Assay type: physicochemical
# Conditions: 20 mg iron per liter, pH 7, 8, 9 and 10, CaCl2 0.020 M, after three days, filtered; FIG. 1
# Procedure: For each product tested, four solutions were prepared containing 20 milligrams of iron per liter and having respectively a pH of 7, 8, 9 and 10 (the pH having been adjusted with sodium hydroxide or hydrochloric acid).
# Four similar solutions were prepared, each containing calcium chloride CaCl2 (0.020 M).
# After three days, these solutions were filtered through filters with a pore size of 0.045 micrometer and the iron content in the […] was determined by inductively coupled plasma emission optical spectroscopy (ICP-EOS).
# The amount of iron remaining in solution in the presence of calcium ions was calculated using the following formula:
# [formula] in which: [Fe]pHi+Ca represents the concentration of iron in the filtrate from a solution (containing calcium chloride 0.020 M) with pH equal to i, expressed in milligrams per liter; [Fe]pHi represents the concentration of iron in the filtrate from a solution not containing calcium with pH equal to i, expressed in milligrams per liter. Results
substance,measurement,value
Citrate-Fe(III) Complex,iron remaining in solution in the presence of calcium ions,undergoes precipitation in the range of pH between the values of 9 and 10

# Reference: patent US8652231B2, “Metal complexes; use thereof for the preparation of compositions for agricultural use” (Timac Argo International, priority 2008, dated 2014)
